Assay results published in patent US10722597B2, “Cyclodextrin-panobinostat adduct” (MIDATECH LTD., priority 2016, dated 2020).

What was measured:
[1] = tested on: U87MG (Glioblastoma) cell line; test: MTT cell viability (cytotoxicity); type: cell-based; settings: 48 or 72 hrs exposure
Method: (§1) Error bars indicate plus or minus standard deviation of triplicate samples. N=1 experimental replicate.
(§2) Cell viability was then assessed using MTT reagent.

[2] = tested on: HEPG2 (Hepatocellular carcinoma) cell line; test: MTT cell viability (cytotoxicity); type: cell-based; settings: HEPG2, 48 or 72 hrs exposure
Method: as §1, §2

[3] = HPLC stability of 10 mM panobinostat stock solutions at room temperature; type: physicochemical
Method: Samples were diluted to allow analysis by HPLC (to avoid overloading the system). Peak areas were measured for both solutions at time 0, 100 h and 150 h post preparation. Samples were stored at room temperature over the course of the analysis. Percentage change was calculated based on the peak area and compared to analysis at time zero. One replicate was analysed and 7.2 μl was injected (equivalent to 0.25 μg on column) for each sample. The concentration of the stock solutions assessed was 10 mM. Column: Ascentis Express Peptide, ES-C18, 10 cm×4.6 mm Mobile phases: 0.1% trifluoroacetic acid (TFA) in acetonitrile (organic) and 0.1% trifluoroacetic acid in water HPLC: Agilent 1260 infinity HPLC conditions used: […]

[4] = Solubility of panobinostat free base in aqueous media; type: physicochemical
Method: The pH of the first aqueous solution is in the range 2.0 to 4.0, for example 2.5 to 3.5. Preferably, the pH of the first aqueous solution is about 3.0.
It is similarly insoluble in concentrated aqueous solutions of 2-hydroxypropyl-β-cyclodextrin (HP-β-CD) (450 mg/ml).

Compound	Toxicity (cell viability, MTT) [1]	Toxicity (cell viability, MTT) [2]	Decrease of Panobinostat concentration ([3]; DMSO solution, 100 hrs)	Decrease of Panobinostat concentration ([3]; DMSO solution, 150 hrs)	Decrease of Panobinostat concentration ([3]; citrate solution, 100 hrs)	Decrease of Panobinostat concentration ([3]; citrate solution, 150 hrs)	solubility ([4]; aqueous buffer, thermodynamic from solid, free base, citrate buffer at pH 3.0, read-out: Soluble concentration in citrate buffer)	Solubility in citrate buffer ([4]; citrate buffer at pH 3.0)	Solubility in concentrated aqueous 2-hydroxypropyl-β-cyclodextrin ([4]; free base, HP-β-CD 450 mg/ml)	Solubility in water ([4]; free base, water)
2-hydroxypropyl-β-cyclodextrin	essentially non-toxic	essentially non-toxic								
Cc1[nH]c2ccccc2c1CCNCc1ccc(/C=C/C(=O)NO)cc1 [Panobinostat, 2-(E)-N-hydroxy-3-[4[[[2-(2-methyl-1H-indol-3-yl)ethyl]amino]methyl]phenyl]-2-propenamide]			2.8%	4.4%	0.4%	1%	≥ 10 mM	soluble	insoluble	poorly soluble
